Measured values from US5258492A, “LHRH analogues with cytotoxic moieties at the sixth position” (The Administrators of the Tulane Educational Fund, priority 1991, dated 1993).

Legend:
rat mammary carcinomas = details: prior art; compared with ovariectomy; cited from earlier work
[1] = test system: membrane receptors of rat Dunning tumor; assay: Affinity to membrane receptors of rat Dunning tumor using 125I-labeled [D-Trp6]LHRH; format: binding
Procedure: (§1) This is determined by using labelled LHRH and [D-Trp^6 ]LHRH. The assay is carried out similarly to that described by T. Kadar et al., Proc. Natl. Acad. Sci. USA, 85, 890-894 (1988).
(§2) *Affinity constants of the peptides for the first receptor class, Ka
(§3) (i.e. for high affinity binding sites) and for the second receptor class,
(§4) Ka2 (i.e. for low affinity binding sites) of human prostate cancer
(§5) and rat Dunning tumor, respectively, as determined by using ^125
(§6) Ilabeled [DTrp^6 ]LHRH.

[2] = test system: membrane receptors of human prostate cancer; assay: Affinity to membrane receptors of human prostate cancer using 125I-labeled [D-Trp6]LHRH; format: binding
Procedure: as §1, §2, §3, §4, §5, §6

LHRH = details: prior art; cited from earlier work
4-day cycling rats = assay: In vivo antiovulatory activity in 4-day cycling rats; set-up: species or system rat
Procedure: This activity of the peptides is determined in 4-day-cycling rats as described [A. Corbin and C. W. Beattie, Endocr. Res. Commun., 2, 1-23 (1975)].
(§7) Table 2 presents the antiovulatory activity of the claimed compounds having LHRH-inhibiting properties. The inhibitory action was determined in vivo, in 4-day cycling rats as described [A. Corbin and C. W. Beattie, Endocr. Res. Commun., 2, 1-23 (1975)]. Affinities of the claimed compounds to membrane receptors of rat pituitary and human breast cancer cells are also given in Tables 1 and 2 as determined by using [^125 I,D-Trp^6 ]LHRH.
*LHRH-inhibiting potencies were assayed in 4day cyclic rats.

[3] = target: T1, membrane receptors of human breast cancer cells (Homo sapiens, UniProt P30968); assay: Binding affinity for membrane receptors of human breast cancer cells using 125I-labeled [D-Trp6]LHRH; details: Table 2, high affinity binding sites
T1 construct: endogenous in cells; host or cells: human breast cancer cells (membranes)
T1 sequence (P30968 1-328): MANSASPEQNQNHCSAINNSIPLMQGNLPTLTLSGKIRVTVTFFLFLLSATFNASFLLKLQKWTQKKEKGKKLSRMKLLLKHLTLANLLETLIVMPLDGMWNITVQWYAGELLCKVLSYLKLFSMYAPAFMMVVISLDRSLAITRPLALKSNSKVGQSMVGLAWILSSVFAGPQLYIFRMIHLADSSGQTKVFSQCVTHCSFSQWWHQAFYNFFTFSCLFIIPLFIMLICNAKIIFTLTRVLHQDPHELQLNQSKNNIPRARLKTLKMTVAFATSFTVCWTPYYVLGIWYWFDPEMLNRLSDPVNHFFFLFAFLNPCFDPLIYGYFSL
Procedure: as §1, §7
(§8) **Affinity constants of the peptides for the first receptor class (i.e.
(§9) for high affinity binding sites) of pituitary of male rats and human
(§10) breast cancer cells, respectively, as determined by using ^125
as §6
(§11) breast cancer cells, respectively, were determined by using ^125

[4] = target: T2, membrane receptors of pituitary of male rats (Rattus norvegicus, UniProt P30969); assay: Binding affinity for membrane receptors of rat pituitary using 125I-labeled [D-Trp6]LHRH; details: Table 2, high affinity binding sites
T2 construct: from tissue; host or cells: pituitary of male rats (membranes)
T2 sequence (P30969 1-327): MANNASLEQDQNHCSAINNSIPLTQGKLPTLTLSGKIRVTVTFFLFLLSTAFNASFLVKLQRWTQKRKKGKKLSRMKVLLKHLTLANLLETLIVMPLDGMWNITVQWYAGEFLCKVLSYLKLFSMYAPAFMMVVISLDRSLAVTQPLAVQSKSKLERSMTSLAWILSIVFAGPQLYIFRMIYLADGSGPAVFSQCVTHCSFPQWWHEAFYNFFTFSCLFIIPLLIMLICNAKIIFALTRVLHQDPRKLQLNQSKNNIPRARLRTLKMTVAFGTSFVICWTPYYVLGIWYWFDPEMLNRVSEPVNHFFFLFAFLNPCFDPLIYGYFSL
Procedure: as §1, §7, §8, §9, §10, §6, §11

[5] = test system: human breast carcinoma cells; details: prior art; cited from earlier work
[6] = second receptor class (low affinity binding sites)
[7] = first receptor class (high affinity binding sites)

| Binding affinity, Ka1, for membrane receptors of cancer cells [3] [nM⁻¹] | Binding affinity, Ka1, for membrane receptors of pituitary [4] [nM⁻¹] | Molecule | activity of Chlorambucil-linked LHRH agonist / antagonist analogue (in words) (LHRH) | also measured |
| --- | --- | --- | --- | --- |
|  |  | CC(C)C[C@H](NC(=O)[C@@H](COC(C)(C)C)NC(=O)[C@H](Cc1ccc(O)cc1)NC(=O)[C@H](CO)NC(=O)[C@H](Cc1c[nH]c2ccccc12)NC(=O)[C@H](Cc1cnc[nH]1)NC(=O)[C@@H]1CCC(=O)N1)C(=O)N[C@@H](CCCNC(=N)N)C(=O)N1CCC[C@H]1C(=O)NNC(N)=O [Example A4] |  | effectiveness in treatment of rat mammary carcinomas (in words) (rat mammary carcinomas): as effective as ovariectomy |
|  |  | Ac-D-Nal(2)-D-Phe(4Cl)-D-Trp-Ser-Arg-D-Mel-Leu-Arg-Pro-D-Ala-NH2 [IIA] |  | Dunning tumor Ka2 [1, 6]: 25.1 µM⁻¹; Human prostate cancer Ka2 [2, 6]: 0.97 µM⁻¹ |
|  |  | CC(C)C[C@H](NC(=O)[C@@H](Cc1c[nH]c2ccccc12)NC(=O)[C@H](Cc1ccc(O)cc1)NC(=O)[C@H](CO)NC(=O)[C@H](Cc1c[nH]c2ccccc12)NC(=O)[C@H](Cc1c[nH]cn1)NC(=O)[C@@H]1CCC(=O)N1)C(=O)N[C@@H](CCCNC(=N)N)C(=O)N1CCC[C@H]1C(=O)NCC(N)=O [[D-Trp^6]-LHRH, [D-Trp^6]LHRH, reference compound] |  | Dunning tumor Ka1 [1, 7]: 1.87 nM⁻¹; Human prostate cancer Ka1 [2, 7]: 0.04 nM⁻¹ |
|  |  | [Chlorambucil-D-Leu^2,D-Leu^3,D-Ala^6 ]LHRH (2-10) | moderate activities |  |
|  |  | [D-Lys(Chlorambucil)^6 ] LHRH | moderate activities |  |
|  |  | [Chlorambucil-D-Phe^1,D-Phe^2,D-Trp^3,6 ]LHRH | practically inactive |  |
| 2.436 | 5.250 | Ac-D-Nal(2)-D-Phe(4Cl)-D-Pal(3)-Ser-Arg-D-Lys[(Cu^++)(POLP)2 (DL-A2 pr)]-Leu-Arg-Pro-D-Ala-NH2 [Example XX] |  | % Blockade of ovulation (4-day cycling rats; Dose 3 μg/rat): 80% |
| 2.628 | 5.483 | Ac-D-Nal(2)-D-Phe(4Cl)-D-Pal(3)-Ser-Arg-D-Lys[(Cu^++)(POL)2 (DL-A2 pr)]-Leu-Arg-Pro-D-Ala-NH2 [XXIV] |  | % Blockade of ovulation (4-day cycling rats; Dose 3 μg/rat): 50% |
|  |  | CCNC(=O)[C@@H]1CCCN1C(=O)[C@H](CCCNC(=N)N)NC(=O)[C@H](CC(C)C)NC(=O)[C@@H](COC(C)(C)C)NC(=O)[C@H](Cc1ccc(O)cc1)NC(=O)[C@H](CO)NC(=O)[C@H](Cc1c[nH]c2ccccc12)NC(=O)[C@H](Cc1cnc[nH]1)NC(=O)[C@@H]1CCC(=O)N1 [Example A3] |  | growth of human breast carcinoma cells containing LHRH binding sites (in words) [5]: inhibited |

| Molecule | Binding affinity, Ka1, for membrane receptors of cancer cells [3] [nM⁻¹] | Binding affinity, Ka1, for membrane receptors of pituitary [4] [nM⁻¹] | activity of Chlorambucil-linked LHRH agonist / antagonist analogue (in words) (LHRH) | also measured |
| --- | --- | --- | --- | --- |
| Ac-D-Nal(2)-D-Phe(4Cl)-D-Pal(3)-Ser-Arg-D-Lys[(Ni^++)(SAL)2 (DL-A2 pr)]-Leu-Arg-Pro-D-Ala-NH2 [XIII] | 0.878 | 1.821 |  | % Blockade of ovulation (4-day cycling rats; rat, in vivo): 100 |
